{"source": "patent US10307439B2", "about": "“Substituted nucleosides, nucleotides and analogs thereof” (priority 2014, dated 2019)", "key": {"[1]": {"tested_on": "human β-coronavirus strain OC43 or human α-coronavirus strain 229E", "experiment": "Coronavirus assay (cytopathic effect, CellTiter-Glo, HeLa or MRC-5 cells)", "assay_type": "cell-based", "conditions": "Betacoronavirus 1; for inhibition: at one or more of the concentrations 75 μM, 10 μM and 2 μM, strain OC43 or 229E not specified; for EC50: coronavirus strain OC43 or 229E not specified, 4 h pre-incubation, 5 days"}, "Chikungunya virus": {"tested_on": "Chikungunya virus", "experiment": "Chikungunya assay", "assay_type": "cell-based", "conditions": "2 h pre-incubation"}, "[2]": {"tested_on": "TC-83 strain Venezuelan equine encephalitis virus", "experiment": "microbe, parasite or virus in culture", "assay_type": "cell-based"}, "SARS polymerase": {"target": "SARS polymerase (Severe acute respiratory syndrome coronavirus, UniProt P0C6X7)", "experiment": "biochemical", "design": "species or system SARS virus"}, "MERS": {"tested_on": "MERS", "experiment": "microbe, parasite or virus in culture", "assay_type": "cell-based", "conditions": "Middle East respiratory syndrome-related coronavirus, 96 h"}}}
{"smiles": "CCOc1nc(N)nc2c1ncn2[C@@H]1O[C@](F)(CO[P@](=O)(N[C@@H](C)C(=O)OC2CCCCC2)Oc2ccccc2)[C@@H](O)[C@@]1(C)F", "note": "(single isomer, unassigned) [Compound 212a]", "values": [{"measurement": "inhibition", "setting": "[1]", "value": "≥ 50", "unit": "%"}, {"measurement": "EC50", "setting": "[1]", "value": "< 10", "unit": "µM"}]}
{"smiles": "CCOc1nc(N)nc2c1ncn2[C@@H]1O[C@](F)(CO[P@@](=O)(N[C@@H](C)C(=O)OC2CCCCC2)Oc2ccccc2)[C@@H](O)[C@@]1(C)F", "note": "(single isomer, unassigned) [Compound 212b]", "values": [{"measurement": "inhibition", "setting": "[1]", "value": "≥ 50", "unit": "%"}, {"measurement": "EC50", "setting": "[1]", "value": "< 10", "unit": "µM"}]}
{"smiles": "CC(C)OC(=O)OCOP(=O)(OCOC(=O)OC(C)C)OC[C@@]1(F)O[C@@H](n2ccc(=O)[nH]c2=O)[C@](C)(O)[C@@H]1O", "note": "[Compound 9]", "values": [{"measurement": "EC50", "setting": "Chikungunya virus", "value": "< 10", "unit": "µM"}, {"measurement": "EC50", "setting": "[2]", "value": "< 10", "unit": "µM"}]}
{"smiles": "C[C@H](NP(=O)(OC[C@@]1(F)O[C@@H](n2cnc3c(=O)[nH]c(N)nc32)[C@](C)(O)[C@@H]1F)Oc1ccccc1)C(=O)OC1CCCCC1", "note": "(stereo partly drawn) [Compound 14]", "values": [{"measurement": "inhibition", "setting": "[1]", "value": "≥ 50", "unit": "%"}]}
{"smiles": "CCOc1nc(N)nc2c1ncn2[C@@H]1O[C@](F)(COP(=O)(N[C@@H](C)C(=O)OC2CCCCC2)Oc2ccccc2)[C@@H](F)[C@@]1(C)O", "note": "(stereo partly drawn) [Compound 16]", "values": [{"measurement": "EC50", "setting": "[1]", "value": "< 10", "unit": "µM"}]}
{"smiles": "C[C@]1(F)[C@H](n2cnc3c(=O)[nH]c(N)nc32)O[C@](F)(COP(=O)(O)OP(=O)(O)OP(=O)(O)O)[C@H]1O", "note": "[Compound 19]", "values": [{"measurement": "IC50", "setting": "SARS polymerase", "value": "< 10", "unit": "µM"}]}
{"smiles": "CCOc1nc(N)nc2c1ncn2[C@@H]1O[C@](F)(COP(=O)(N[C@@H](C)C(=O)OC(C)C)Oc2ccccc2)[C@@H](F)[C@@]1(C)O", "note": "(stereo partly drawn) [Compound 22]", "values": [{"measurement": "inhibition", "setting": "[1]", "value": "≥ 50", "unit": "%"}]}
{"smiles": "CCOc1nc(N)nc2c1ncn2[C@@H]1O[C@](F)(CO[P@](=O)(N[C@@H](C)C(=O)OC2CCCCC2)Oc2ccccc2)[C@@H](O)[C@@]1(C)F", "note": "[Compound 25]", "values": [{"measurement": "EC50", "setting": "Chikungunya virus", "value": "< 10", "unit": "µM"}, {"measurement": "EC90", "setting": "MERS", "value": "10 to 50", "unit": "µM"}, {"measurement": "EC50", "setting": "[2]", "value": "< 10", "unit": "µM"}]}
{"smiles": "C#C[C@]1(O)[C@H](n2cnc3c(OCC)nc(N)nc32)O[C@](F)(CO[P@](=O)(N[C@@H](C)C(=O)OC2CCCCC2)Oc2ccccc2)[C@H]1O", "note": "[Compound 27]", "values": [{"measurement": "EC90", "setting": "MERS", "value": "10 to 50", "unit": "µM"}]}
{"smiles": "C[C@@]1(O)[C@H](O)[C@@](CF)(COP(=O)(O)OP(=O)(O)OP(=O)(O)O)O[C@H]1n1cnc2c(=O)[nH]c(N)nc21", "note": "[Compound 34]", "values": [{"measurement": "IC50", "setting": "SARS polymerase", "value": "< 10", "unit": "µM"}]}
{"smiles": "CCOc1nc(N)nc2c1ncn2[C@@H]1O[C@](CF)(COP(=O)(N[C@@H](C)C(=O)OC2CCCCC2)Oc2ccccc2)[C@@H](O)[C@@]1(C)O", "note": "(stereo partly drawn) [Compound 36]", "values": [{"measurement": "EC90", "setting": "MERS", "value": "< 10", "unit": "µM"}]}
{"smiles": "CCOc1nc(N)nc2c1ncn2[C@@H]1O[C@](F)(COP(=O)(OCOC(=O)OC(C)C)OCOC(=O)OC(C)C)[C@@H](O)[C@@]1(C)O", "note": "[Compound 55]", "values": [{"measurement": "inhibition", "setting": "[1]", "value": "≥ 50", "unit": "%"}, {"measurement": "EC50", "setting": "[1]", "value": "< 10", "unit": "µM"}, {"measurement": "EC50", "setting": "Chikungunya virus", "value": "< 10", "unit": "µM"}, {"measurement": "EC50", "setting": "[2]", "value": "< 10", "unit": "µM"}]}
{"smiles": "CCOc1nc(N)nc2c1ncn2[C@@H]1O[C@](F)(COP(=O)(OCOC(=O)OC(C)C)OCOC(=O)OC(C)C)[C@@H](F)[C@@]1(C)O", "note": "[Compound 57]", "values": [{"measurement": "inhibition", "setting": "[1]", "value": "≥ 50", "unit": "%"}, {"measurement": "EC50", "setting": "[1]", "value": "< 10", "unit": "µM"}, {"measurement": "EC90", "setting": "MERS", "value": "< 10", "unit": "µM"}]}
{"smiles": "CCOc1nc(N)nc2c1ncn2[C@@H]1O[C@](F)(COP(=O)(OCOC(=O)OC(C)C)OCOC(=O)OC(C)C)[C@@H](O)[C@@]1(C)F", "note": "[Compound 83]", "values": [{"measurement": "inhibition", "setting": "[1]", "value": "≥ 50", "unit": "%"}, {"measurement": "EC50", "setting": "[1]", "value": "< 10", "unit": "µM"}]}
{"smiles": "C[C@]1(O)[C@H](n2cnc3c(=O)[nH]c(N)nc32)O[C@](F)(COP(=O)(O)OP(=O)(O)OP(=O)(O)O)[C@H]1F", "note": "[Compound 101]", "values": [{"measurement": "IC50", "setting": "SARS polymerase", "value": "< 10", "unit": "µM"}]}
{"smiles": "C#C[C@]1(O)[C@H](n2cnc3c(=O)[nH]c(N)nc32)O[C@](F)(COP(=O)(O)OP(=O)(O)OP(=O)(O)O)[C@H]1F", "note": "[Compound 103]", "values": [{"measurement": "IC50", "setting": "SARS polymerase", "value": "< 10", "unit": "µM"}]}
{"smiles": "C#C[C@]1(F)[C@H](n2cnc3c(=O)[nH]c(N)nc32)O[C@](F)(COP(=O)(O)OP(=O)(O)OP(=O)(O)O)[C@H]1O", "note": "[Compound 123]", "values": [{"measurement": "IC50", "setting": "SARS polymerase", "value": "< 10", "unit": "µM"}]}
{"smiles": "C[C@@]1(F)[C@H](O)[C@@](CF)(COP(=O)(O)OP(=O)(O)OP(=O)(O)O)O[C@H]1n1cnc2c(=O)[nH]c(N)nc21", "note": "[Compound 162]", "values": [{"measurement": "IC50", "setting": "SARS polymerase", "value": "< 10", "unit": "µM"}]}
{"smiles": "CCOc1nc(N)nc2c1ncn2[C@@H]1O[C@](CN=[N+]=[N-])(COP(=O)(OCOC(=O)OC(C)C)OCOC(=O)OC(C)C)[C@@H](O)[C@H]1F", "note": "[Compound 179]", "values": [{"measurement": "EC50", "setting": "[1]", "value": "< 10", "unit": "µM"}]}
{"smiles": "C#C[C@@]1(O)[C@H](O)[C@@H](COP(=O)(O)OP(=O)(O)OP(=O)(O)O)O[C@H]1n1cnc2c(=O)[nH]c(N)nc21", "note": "[Compound 203]", "values": [{"measurement": "IC50", "setting": "SARS polymerase", "value": "< 10", "unit": "µM"}]}
{"smiles": "CCOc1nc(N)nc2c1ncn2[C@@H]1O[C@]2(F)COP(=O)(OC(C)C)O[C@H]2[C@@]1(C)F", "note": "(stereo partly drawn) [Compound 225]", "values": [{"measurement": "inhibition", "setting": "[1]", "value": "≥ 50", "unit": "%"}]}
{"smiles": "CCOc1nc(N)nc2c1ncn2[C@@H]1O[C@](F)(COP(=O)(N[C@@H](C)C(=O)OCC(C)(C)C)Oc2cccc3ccccc23)[C@@H](O)[C@@]1(C)F", "note": "(stereo partly drawn) [Compound 234]", "values": [{"measurement": "inhibition", "setting": "[1]", "value": "≥ 50", "unit": "%"}]}
{"smiles": "C[C@@]1(Cl)[C@H](O)[C@@H](COP(=O)(O)OP(=O)(O)OP(=O)(O)O)O[C@H]1n1cnc2c(=O)[nH]c(N)nc21", "note": "[Compound 246]", "values": [{"measurement": "IC50", "setting": "SARS polymerase", "value": "< 10", "unit": "µM"}]}
{"smiles": "CC(C)(C)C(=O)OCOP(=O)(OCOC(=O)C(C)(C)C)OC[C@H]1O[C@@H](n2ccc(=O)[nH]c2=O)[C@](C)(O)[C@@H]1O", "note": "[Compound 265]", "values": [{"measurement": "EC50", "setting": "Chikungunya virus", "value": "< 10", "unit": "µM"}, {"measurement": "EC90", "setting": "MERS", "value": "10 to 50", "unit": "µM"}, {"measurement": "EC50", "setting": "[2]", "value": "< 10", "unit": "µM"}]}
{"smiles": "C[C@H](NP(=O)(OC[C@H]1O[C@@H](n2cnc3c(=O)[nH]c(N)nc32)[C@](C)(Cl)[C@@H]1O)Oc1ccccc1)C(=O)OC1CCCCC1", "note": "(stereo partly drawn) [Compound 266]", "values": [{"measurement": "EC90", "setting": "MERS", "value": "< 10", "unit": "µM"}]}
{"smiles": "CCOc1nc(N)nc2c1ncn2[C@@H]1O[C@H](COP(=O)(N[C@@H](C)C(=O)OC2CCCCC2)Oc2ccccc2)[C@@H](O)[C@@]1(C)Cl", "note": "(stereo partly drawn) [Compound 267]", "values": [{"measurement": "EC90", "setting": "MERS", "value": "10 to 50", "unit": "µM"}]}
